Results from patent US10202368B2, “CXCR7 receptor modulators” (IDORSIA PHARMACEUTICALS LTD, priority 2014, dated 2019).

Molecular target: CXCR7 (Homo sapiens (Human), UniProt P25106)
Experiment: PathHunter CHO-K1 CXCR7 β-arrestin assay (agonistic activity)
Format: cell-based
Details: β-arrestin recruitment in PathHunter CHO-K1 CXCR7 β-arrestin cells, 90 minutes at 37° C., geometric mean values
Description: The CXCI12 receptor and CXCR7 agonistic activities of the compounds of formula (I) are determined in accordance with the following experimental method.
The assay is using the PathHunter™ CHO-K1 CXCR7 β-arrestin cell line from DiscoverX. The system is based on the Enzyme Fragment Complementation Technology. Two complementing fragments of the β-galactosidase enzyme are expressed within stably transfected cells. The larger portion of β-gal, termed EA for Enzyme Acceptor, is fused to the C-terminus of b-arrestin 2. The smaller fragment, termed ProLink™ tag, is fused to CXCR7 at the C-terminus. Upon activation, b-arrestin is recruited which forces the interaction of ProLink and EA, allowing complementation of the two fragments of b-gal and the formation of a functional enzyme which is capable of hydrolysing the substrate and generating a chemiluminescent signal.
CHO-K1 CXCR7 β-arrestin cells are detached from culture dishes with a cell dissociation buffer (Invitrogen, #13151-014) and collected in growing medium (F12 HAMS 90% (v/v)/FCS 10% (v/v), Penicillin/streptomycin 1% (v/v)). 5000 cells per well (in 20 μl) are seeded in a 384 well plate (white-walled, clear bottom; BD Falcon #353274). The plate is incubated at 37° C./5% CO2 for 24 hours. Medium is then replaced by 20 μl OPTIMEM (Invitrogen #31985) for 3 to 4 hours. Test compounds are dissolved at 10 mM in DMSO and serially diluted in DMSO to 200× of the final concentration for dose response curves. Compounds are then diluted 1:33.3 in HBSS1X. 5 μl/well of HBSS1X/20 mM HEPES/0.2% BSA are added to the assay plate followed by addition of 5 μl/well of diluted compounds. CXCL12 (Peprotech #300-28A) may be used as a reference agonist. The plate is incubated for 90 minutes at 37° C. 12 μl of detection reagent (Path Hunter Detection Kit, DiscoveRx, #93-0001) is transferred to the assay plate and to the plate is incubated for 1 hour at room temperature. Luminescent signal is read in a microplate reader (FLUOstar Optima, bmg). The calculated EC50 values may fluctuate depending on the daily cellular assay performance. Fluctuations of this kind are known to those skilled in the art. Average EC50 values from several measurements are given as geometric mean values.

Sequence of CXCR7 (P25106 whole entry): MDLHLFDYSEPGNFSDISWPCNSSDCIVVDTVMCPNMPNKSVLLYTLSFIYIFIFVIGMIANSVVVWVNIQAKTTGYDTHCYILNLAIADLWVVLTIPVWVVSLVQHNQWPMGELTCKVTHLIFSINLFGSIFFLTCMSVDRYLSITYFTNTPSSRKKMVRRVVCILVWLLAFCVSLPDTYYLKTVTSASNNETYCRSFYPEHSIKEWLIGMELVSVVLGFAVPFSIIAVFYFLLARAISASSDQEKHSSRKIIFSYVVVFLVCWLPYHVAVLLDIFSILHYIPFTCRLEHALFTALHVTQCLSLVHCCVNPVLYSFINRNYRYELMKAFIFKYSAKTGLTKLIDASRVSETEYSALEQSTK
Sequence of CXCR7 (P32121 whole entry partner): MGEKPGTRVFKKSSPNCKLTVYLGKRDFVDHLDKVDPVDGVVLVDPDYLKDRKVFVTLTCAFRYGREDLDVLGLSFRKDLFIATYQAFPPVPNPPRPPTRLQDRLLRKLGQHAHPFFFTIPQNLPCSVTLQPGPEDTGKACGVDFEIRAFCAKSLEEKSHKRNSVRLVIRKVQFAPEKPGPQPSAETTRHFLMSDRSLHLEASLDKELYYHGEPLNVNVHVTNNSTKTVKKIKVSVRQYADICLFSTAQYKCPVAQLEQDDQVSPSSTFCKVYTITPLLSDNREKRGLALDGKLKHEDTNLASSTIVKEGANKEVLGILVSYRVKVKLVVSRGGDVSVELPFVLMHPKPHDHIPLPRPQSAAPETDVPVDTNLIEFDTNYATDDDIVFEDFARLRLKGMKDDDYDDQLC

Compound | EC50 [µM]
2-(4-Cyclopropylmethyl-1-methyl-2,3,4,5-tetrahydro-1H-benzo[e][1,4]diazepin-9-ylamino)-N-(2-morpholin-4-yl-ethyl)-N-(3-trifluoromethyl-pyridin-2-ylmethyl)-acetamide [Example 55] | 0.01
CC(C)CN1CCOc2c(cccc2NCC(=O)N(CCN(C)C)Cc2ccccc2C(F)(F)F)C1 [Example 1, N-(2-Dimethylamino-ethyl)-2-(4-isobutyl-2,3,4,5-tetrahydro-benzo[f][1,4]oxazepin-9-ylamino)-N-(2-trifluoromethyl-benzyl)-acetamide] | 0.008
CC(C)CN1CCOc2c(cccc2NCC(=O)N(CCN(C)C)Cc2ncccc2C(F)(F)F)C1 [Example 2, N-(2-Dimethylamino-ethyl)-2-(4-isobutyl-2,3,4,5-tetrahydro-benzo[f][1,4]oxazepin-9-ylamino)-N-(3-trifluoromethyl-pyridin-2-ylmethyl)-acetamide] | 0.003
CC(C)CN1CCOc2c(cccc2NCC(=O)N(CCN(C)C)Cc2ncccc2Cl)C1 [Example 3, N-(3-Chloro-pyridin-2-ylmethyl)-N-(2-dimethylamino-ethyl)-2-(4-isobutyl-2,3,4,5-tetrahydro-benzo[f][1,4]oxazepin-9-ylamino)-acetamide] | 0.009
CCN1CCOc2c(cccc2NCC(=O)N(CCN(C)C)Cc2ncccc2Cl)C1 [Example 4, N-(3-Chloro-pyridin-2-ylmethyl)-N-(2-dimethylamino-ethyl)-2-(4-ethyl-2,3,4,5-tetrahydro-benzo[f][1,4]oxazepin-9-ylamino)-acetamide] | 0.024
CCN1CCOc2c(cccc2NCC(=O)N(CCN(C)C)Cc2ccccc2C(F)(F)F)C1 [Example 5, N-(2-Dimethylamino-ethyl)-2-(4-ethyl-2,3,4,5-tetrahydro-benzo[f][1,4]oxazepin-9-ylamino)-N-(2-trifluoromethyl-benzyl)-acetamide] | 0.007
CCCN1CCOc2c(cccc2NCC(=O)N(CCN(C)C)Cc2ncccc2Cl)C1 [Example 6, N-(3-Chloro-pyridin-2-ylmethyl)-N-(2-dimethylamino-ethyl)-2-(4-propyl-2,3,4,5-tetrahydro-benzo[f][1,4]oxazepin-9-ylamino)-acetamide] | 0.019
CCCN1CCOc2c(cccc2NCC(=O)N(CCN(C)C)Cc2ccccc2C(F)(F)F)C1 [Example 7, N-(2-Dimethylamino-ethyl)-2-(4-propyl-2,3,4,5-tetrahydro-benzo[f][1,4]oxazepin-9-ylamino)-N-(2-trifluoromethyl-benzyl)-acetamide] | 0.004
CC(C)CN1CCOc2c(cccc2NCC(=O)N(CCN(C)C)Cc2cccc(Br)c2)C1 [Example 8, N-(3-Bromo-benzyl)-N-(2-dimethylamino-ethyl)-2-(4-isobutyl-2,3,4,5-tetrahydro-benzo[f][1,4]oxazepin-9-ylamino)-acetamide] | 0.036
COc1ccnc(CN(CCN(C)C)C(=O)CNc2cccc3c2OCCN(CC(C)C)C3)c1 [Example 9, N-(2-Dimethylamino-ethyl)-2-(4-isobutyl-2,3,4,5-tetrahydro-benzo[f][1,4]oxazepin-9-ylamino)-N-(4-methoxy-pyridin-2-ylmethyl)-acetamide] | 0.2
CC(C)CN1CCOc2c(cccc2NCC(=O)N(CCN(C)C2CC2)Cc2ccccc2C(F)(F)F)C1 [Example 10, N-[2-(Cyclopropyl-methyl-amino)-ethyl]-2-(4-isobutyl-2,3,4,5-tetrahydro-benzo[f][1,4]oxazepin-9-ylamino)-N-(2-trifluoromethyl-benzyl)-acetamide] | 0.058
CC(C)CN1CCOc2c(cccc2NCC(=O)N(CCN2CCCC2=O)Cc2ccccc2C(F)(F)F)C1 [Example 11, 2-(4-Isobutyl-2,3,4,5-tetrahydro-benzo[f][1,4]oxazepin-9-ylamino)-N-[2-(2-oxo-pyrrolidin-1-yl)-ethyl]-N-(2-trifluoromethyl-benzyl)-acetamide] | 0.19
CC(C)CN1CCOc2c(cccc2NCC(=O)N(CCN2CCCC2)Cc2ccc(F)cc2F)C1 [Example 12, N-(2,4-Difluoro-benzyl)-2-(4-isobutyl-2,3,4,5-tetrahydro-benzo[f][1,4]oxazepin-9-ylamino)-N-(2-pyrrolidin-1-yl-ethyl)-acetamide] | 0.014
CC(C)CN1CCOc2c(cccc2NCC(=O)N(CCN2CCC(F)(F)CC2)Cc2ncccc2Cl)C1 [Example 13, N-(3-Chloro-pyridin-2-ylmethyl)-N-[2-(4,4-difluoro-piperidin-1-yl)-ethyl]-2-(4-isobutyl-2,3,4,5-tetrahydro-benzo[f][1,4]oxazepin-9-ylamino)-acetamide] | 0.088
Cc1ccnc(CN(CCN(C)C)C(=O)CNc2cccc3c2OCCN(CC(C)C)C3)c1 [Example 14, N-(2-Dimethylamino-ethyl)-2-(4-isobutyl-2,3,4,5-tetrahydro-benzo[f][1,4]oxazepin-9-ylamino)-N-(4-methyl-pyridin-2-ylmethyl)-acetamide] | 0.076
CC(C)CN1CCOc2c(cccc2NCC(=O)N(CCN2CCCC2)Cc2ccccc2Cl)C1 [Example 15, N-(2-Chloro-benzyl)-2-(4-isobutyl-2,3,4,5-tetrahydro-benzo[f][1,4]oxazepin-9-ylamino)-N-(2-pyrrolidin-1-yl-ethyl)-acetamide] | 0.011
CC(C)CN1CCOc2c(cccc2NCC(=O)N(CCN2CCOCC2)Cc2ccccc2C(F)(F)F)C1 [Example 16, 2-(4-Isobutyl-2,3,4,5-tetrahydro-benzo[f][1,4]oxazepin-9-ylamino)-N-(2-morpholin-4-yl-ethyl)-N-(2-trifluoromethyl-benzyl)-acetamide] | 0.074
CC(C)CN1CCOc2c(cccc2NCC(=O)N(CCN(C)C)Cc2ccc(F)cc2C(F)(F)F)C1 [Example 17, N-(2-Dimethylamino-ethyl)-N-(4-fluoro-2-trifluoromethyl-benzyl)-2-(4-isobutyl-2,3,4,5-tetrahydro-benzo[f][1,4]oxazepin-9-ylamino)-acetamide] | 0.059
CC(C)CN1CCOc2c(cccc2NCC(=O)N(CCN(C)C)Cc2cccc(C(F)(F)F)c2)C1 [Example 18, N-(2-Dimethylamino-ethyl)-2-(4-isobutyl-2,3,4,5-tetrahydro-benzo[f][1,4]oxazepin-9-ylamino)-N-(3-trifluoromethyl-benzyl)-acetamide] | 0.053
CC(C)CN1CCOc2c(cccc2NCC(=O)N(CCN(C)C)Cc2c(F)cccc2F)C1 [Example 19, N-(2,6-Difluoro-benzyl)-N-(2-dimethylamino-ethyl)-2-(4-isobutyl-2,3,4,5-tetrahydro-benzo[f][1,4]oxazepin-9-ylamino)-acetamide] | 0.012
CC(=O)N1CCOc2c(cccc2NCC(=O)N(CCN(C)C)Cc2ccccc2C(F)(F)F)C1 [Example 20, 2-(4-Acetyl-2,3,4,5-tetrahydro-benzo[f][1,4]oxazepin-9-ylamino)-N-(2-dimethylamino-ethyl)-N-(2-trifluoromethyl-benzyl)-acetamide] | 0.073
CCN1CCNc2c(cccc2NCC(=O)N(CCN(C)C)Cc2ccccc2C(F)(F)F)C1 [Example 21, N-(2-(dimethylamino)ethyl)-2-((4-ethyl-2,3,4,5-tetrahydro-1H-benzo[e][1,4]diazepin-9-yl)amino)-N-(2-(trifluoromethyl)benzyl)acetamide] | 0.006
CN(C)CCN(Cc1ccccc1C(F)(F)F)C(=O)CNc1cccc2c1CN(CC1CC1)CCO2 [Example 22, 2-(4-Cyclopropylmethyl-2,3,4,5-tetrahydro-benzo[f][1,4]oxazepin-6-ylamino)-N-(2-dimethylamino-ethyl)-N-(2-trifluoromethyl-benzyl)-acetamide] | 0.004
CN(C)CCN(Cc1ccccc1C(F)(F)F)C(=O)COc1cccc2c1CCN(CC1CC1)CC2 [Example 23, 2-(3-Cyclopropylmethyl-2,3,4,5-tetrahydro-1H-benzo[d]azepin-6-yloxy)-N-(2-dimethylamino-ethyl)-N-(2-trifluoromethyl-benzyl)-acetamide] | 0.001
COCC(=O)N1CCc2cccc(OCC(=O)N(CCN(C)C)Cc3ccccc3C(F)(F)F)c2CC1 [Example 24, N-(2-Dimethylamino-ethyl)-2-[3-(2-methoxy-acetyl)-2,3,4,5-tetrahydro-1H-benzo[d]azepin-6-yloxy]-N-(2-trifluoromethyl-benzyl)-acetamide] | 0.003
CC(=O)N1CCc2cccc(OCC(=O)N(CCN(C)C)Cc3ccccc3C(F)(F)F)c2CC1 [Example 25, 2-(3-Acetyl-2,3,4,5-tetrahydro-1H-benzo[d]azepin-6-yloxy)-N-(2-dimethylamino-ethyl)-N-(2-trifluoromethyl-benzyl)-acetamide] | 0.003
